From patent publication EP0728012B1, “NOVEL GnRH ANALOGUES WITH ANTITUMOUR EFFECTS AND PHARMACEUTICAL COMPOSITIONS THEREOF” (Lovas, Sandor, priority 1994, dated 1996)

What was measured:
[1] = test system: Ishikawa; conditions: 30 µM active substance, conjugate, treated once
Procedure: The procedure of treatment was as follows. After trypsinization the cells, 400,000 cells of MCF-7, MDA-MB-231 human mammary carcinoma, PC3 human prostate carcinoma or Ishikawa human endometrium tumour each were passed into Petri dishes of 10 cm in diameter. Starting from the day following transfer, the cells were treated with the substances to be tested in solution prepared with the nutrient medium during the exponential growth phase. The cultures were treated with 1 to 50 µM (calculated for the total volume of the culture) or MI-1544 GnRH antagonist, MI-1892 chicken GnRH antagonist or SJ-1004 GnRH […] on the 7th day.

[2] = test system: MCF-7; conditions: MCF-7; 30 µM active substance; conjugate, treated once; cell count on 7th day
Procedure: (§1) The procedure of treatment was as follows. After trypsinization the cells, 400,000 cells of MCF-7, MDA-MB-231 human mammary carcinoma, PC3 human prostate carcinoma or Ishikawa human endometrium tumour each were passed into Petri dishes of 10 cm in diameter. Starting from the day following transfer, the cells were treated with the substances to be tested in solution prepared with the nutrient medium during the exponential growth phase. […]

[3] = test system: MDA-MB-231; conditions: MDA-MB-231; 30 µM active substance; conjugate, treated once
Procedure: as §1

[4] = test system: human tumour cell lines; assay: Inhibition of colony formation (Example 18), cell line not given; assay type: cell-based; conditions: 50 µM of the active substance; cell line not stated
Procedure: The investigation gives a precise information about the cell-damaging effect of the tested substance. In the case of cytostatics the cell-damaging effect is not cell-specific. […] One part of the arrested cells again go into the cycle, the other part may perish (apoptosis). […] The investigations were carried out on MCF-7 and MDA-MB-231 human mammary carcinoma cell lines, PC3 human prostate 15 carcinoma cell line and Ishikawa human endometrium carcinoma cell line. Three hundred cells were set into Petri dishes of 3.5 cm in diameter each. The treatment was carried out once, 24 hours following the explantation, then the colonies formed were counted after 9 to 12 days.

[5] = test system: PC3; assay: In vitro inhibition of cell proliferation (Example 19); assay type: cell-based, human; conditions: 30 µM active substance, conjugate, treated once
How it was run: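 Starting from 400,000 cells per dish during exponential growth, cultures received GnRH antagonist analogues or lamprey GnRH-III at 1 to 50 µM every two days. Cell count determined on day 7.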

[6] = test system: MXT mouse mammary tumour; assay: In vivo antitumour effect on mice bearing MXT mouse mammary tumour; set-up: species or system CBA/Ca mice
Procedure: The MXT mouse mammary carcinoma contains ER and PgR proteins; furthermore, it contains also GnRH receptors; therefore, this in vivo tumour model is suitable for studying both the direct and indirect effects. The treatment of mice bearing MXT mammary tumour was commenced on the day following transplantation. […] Table VI The animals were daily treated in s.c. route starting from the day following transplantation of MXT mouse mammary tumour. […] MI-1544: 75 µg/day/animal; MI-1892: 75 µg/day/animal.

[7] = test system: MDA-MB-231 xenograft; assay: In vivo antitumour effect on MDA-MB-231 xenograft in immunosuppressed mice; set-up: species or system CBA/Ca mice
Procedure: The immunosuppression of mice was carried out by using the method of Steel et al. [Br. J. Cancer, 37, 224-230 (1978)]. Immunosuppression and xeno-transplantation
CBA-Ca female mice of about 6 weeks old were thymectomized and then, after one week, they were irradiated with 60Co (whole body irradiation; the lethal dose is 9.5 Gray). Within 24 hours 3 to 5 x 10^5 myelocytes were injected into the animals. Beneath the skin of the immunosuppressed mice 2 x 10^7 tumour cells or, in the case of later passages, […] were implanted. […] The treatment with steroid hormone was stopped by at least one week before beginning the investigation.
Recent investigations have begun on 28 animals bearing MCF-7 xenograft and on 28 animals bearing MDA-MB-231 xenograft. On animals bearing MCF-7 tumour the treatment was commenced in the 5th week following xeno-transplantation; the tumour volume was 205 to 225 mm^3. On animals bearing MDA-MB-231 tumour, the treatment was started in the 4th week after xeno-transplantation with a tumour volume of 140 to 150 mm^3. […] The control groups were daily treated with physiological saline s.c. (Each treated group consisting of 7 animals).
A more recent study was started on 28 animals bearing MDA-MB-231 xenograft. The treatment was begun in the 4th or 5th week following xenotransplantation. The tumour volume was 0.165 to 0.194 cm^3. […] (For treatment of the control group, see the preceding Examples). Each group consisted of 7 animals.

[8] = MXT mouse mammary tumour, Treatment weeks: 13, 1x75 µg daily s.c.
[9] = MXT mouse mammary tumour, Treatment weeks: 20, 1x75 µg daily s.c.
[10] = Table V, treatment week 2, conjugates 1x50 µg daily s.c.
[11] = Table V, treatment week 6, MI-1892 2x25 µg, conjugates 1x50 µg daily s.c.
[12] = week 0, daily s.c., P-GFLG-1544 1 x 50 µg, P-GFLG-1892 1 x 75 µg
[13] = week 1, daily s.c., P-GFLG-1544 1 x 50 µg, P-GFLG-1892 1 x 75 µg
[14] = week 2, daily s.c., P-GFLG-1544 1 x 50 µg, P-GFLG-1892 1 x 75 µg
[15] = week 3, daily s.c., P-GFLG-1544 1 x 50 µg, P-GFLG-1892 1 x 75 µg
[16] = week 4, daily s.c., P-GFLG-1544 1 x 50 µg, P-GFLG-1892 1 x 75 µg
[17] = week 5, daily s.c., P-GFLG-1544 1 x 50 µg, P-GFLG-1892 1 x 75 µg
[18] = week 6, daily s.c., P-GFLG-1544 1 x 50 µg, P-GFLG-1892 1 x 75 µg

## Ac-D-Trp^1,3,D-Cpa^2, {Lys[n-poly(N-vinyl pyrrolidone-co-maleic acid)-Gly-Phe-Leu-Gly-]}^5, [a-Asp(DEA)]^6, D-Ala^10-GnRH [P-GFLG-1892]
[1]
  % Inhibition of cell division (proliferation): 91%
[2]
  % Inhibition of cell division (proliferation): 45%
[3]
  % Inhibition of cell division (proliferation): 42%
[4]
  inhibition on the colony formation / survival of the cells: 100%
[5]
  % Inhibition of cell division (proliferation): 51%
[6]; [8]
  Inhibition %: 72%
  Tumour volume as control (%): 28%
[6]; [9]
  Inhibition %: 62%
  Tumour volume as control (%): 38%
[6]; day 9, 75 µg/day/animal s.c.
  Tumour volume (cm^3): 0.29 cm^3
  Tumour volume as control (%): 40%
[6]; day 11, 75 µg/day/animal s.c.
  Tumour volume (cm^3): 0.66 cm^3
  Tumour volume as control (%): 36%
[6]; day 13, 75 µg/day/animal s.c.
  Tumour volume (cm^3): 0.91 cm^3
  Tumour volume as control (%): 28%
[6]; day 17, 75 µg/day/animal s.c.
  Tumour volume (cm^3): 1.86 cm^3
  Tumour volume as control (%): 36%
[6]; day 18, 75 µg/day/animal s.c.
  Tumour volume (cm^3): 3.1 cm^3
  Tumour volume as control (%): 42%
[6]; day 20, 75 µg/day/animal s.c.
  Tumour volume (cm^3): 3.61 cm^3
  Tumour volume as control (%): 38%
[6]; day 24, 75 µg/day/animal s.c.
  Tumour volume (cm^3): 6.07 cm^3
  Tumour volume as control (%): 48%
[6]; day 26, 75 µg/day/animal s.c.
  Tumour volume (cm^3): 8.91 cm^3
  Tumour volume as control (%): 64%
[7]; MDA-MB-231 xenograft, end of the 6th week, first series
  tumour-free animals: A tumour-free animal was found
[7]; [10]
  Inhibition %: 26.5%
  Tumour volume as control (%): 73.5%
[7]; [11]
  Inhibition %: 44%
  Tumour volume as control (%): 56%
[7]; [12]
  Tumour volume (cm^3): 0.15 cm^3
  Tumour volume as control (%): 100%
[7]; [13]
  Tumour volume (cm^3): 0.21 cm^3
  Tumour volume as control (%): 84%
[7]; [14]
  Tumour volume (cm^3): 0.25 cm^3
  Tumour volume as control (%): 79%
[7]; [15]
  Tumour volume (cm^3): 0.27 cm^3
  Tumour volume as control (%): 74%
[7]; [16]
  Tumour volume (cm^3): 0.34 cm^3
  Tumour volume as control (%): 81%
[7]; [17]
  Tumour volume (cm^3): 0.33 cm^3
  Tumour volume as control (%): 75%
[7]; [18]
  Tumour volume (cm^3): 0.33 cm^3
  Tumour volume as control (%): 58%
